Drawing on patent publication US11673894B2, “Imidazopyrimidines and triazolopyrimidines as A2A / A2B inhibitors” (Incyte Corporation, priority 2018, dated 2023), this text covers Ki and EC50 for 14 compounds.

One assay has as its target Adenosine A2A receptor (Homo sapiens (Human), UniProt P29274). Description: A2A Tag-lite HTRF Assay. To be noted: Tag-lite Adenosine A2A labeled cells; A2A Receptor Red antagonist fluorescent ligand 12.5 nM; one-site competitive binding model; read-out: A2A_Ki. The text has this: The final concentration of DMSO was 1%.
(In general: In TR-FRET formats the signal depends on donor and acceptor labels being close together.)

Assay [1] deals with human adenosine A2B receptor (Homo sapiens (Human), UniProt P29275). The assay can be described thus: Adenosine A2B Receptor Cyclic AMP GS Assay. The assay is classed as cell-based. To be noted: HEK-293 cells expressing human A2B receptor; agonist NECA at 12 nM; cAMP accumulation (FRET); read-out: A2B_cAMP_EC50. An outline of the steps: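 HEK-293 cells stably expressing human A2B receptor were pretreated 30 min at room temperature with compound, then stimulated with 12 nM NECA for 60 min. cAMP accumulation was measured by HTRF (665/620 ratio). Values were fitted from percent of control versus log concentration.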
Chain of human adenosine A2B receptor (P29275 whole entry): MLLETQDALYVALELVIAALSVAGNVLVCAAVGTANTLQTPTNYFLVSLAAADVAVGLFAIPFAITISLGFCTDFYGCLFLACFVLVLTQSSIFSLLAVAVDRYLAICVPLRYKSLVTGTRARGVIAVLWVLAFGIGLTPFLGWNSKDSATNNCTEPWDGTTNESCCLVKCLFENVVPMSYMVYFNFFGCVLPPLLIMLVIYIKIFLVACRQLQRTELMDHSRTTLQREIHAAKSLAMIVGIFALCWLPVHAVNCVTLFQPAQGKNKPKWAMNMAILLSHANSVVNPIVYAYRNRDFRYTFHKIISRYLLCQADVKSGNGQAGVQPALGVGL
(In general: Cyclic AMP is a second messenger, typically raised through Gs and lowered through Gi signalling.)

Chain of Adenosine A2A receptor (P29274 whole entry): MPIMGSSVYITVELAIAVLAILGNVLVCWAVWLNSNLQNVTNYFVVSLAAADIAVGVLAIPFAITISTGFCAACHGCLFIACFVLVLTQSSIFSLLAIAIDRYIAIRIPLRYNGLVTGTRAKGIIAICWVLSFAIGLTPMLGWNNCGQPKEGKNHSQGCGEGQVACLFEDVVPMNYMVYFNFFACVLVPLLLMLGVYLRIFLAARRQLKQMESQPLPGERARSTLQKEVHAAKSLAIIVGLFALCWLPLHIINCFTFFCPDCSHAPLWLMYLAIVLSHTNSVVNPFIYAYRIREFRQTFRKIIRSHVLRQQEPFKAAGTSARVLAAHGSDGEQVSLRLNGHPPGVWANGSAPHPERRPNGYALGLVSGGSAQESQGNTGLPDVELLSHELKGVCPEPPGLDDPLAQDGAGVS

`N#Cc1cccc(-c2nc(N)n3nc(C(NCCO)c4ccccc4)nc3c2-c2ccncc2)c1` (stereo not shown) [Example 47, 3-(5-Amino-2-((2-hydroxyethylamino)(phenyl)methyl)-8-(pyridin-4-yl)-[1,2,4]triazolo[1,5-c]pyrimidin-7-yl)benzonitrile]: the Ki on Adenosine A2A receptor was less than 10 nM. In assay [1], the EC50 was less than 10 nM.
`CCNC(=O)c1cn2c(N)nc(-c3cccc(C#N)c3)c(-c3ccncn3)c2n1` [Example 38, 5-Amino-7-(3-cyanophenyl)-N-ethyl-8-(pyrimidin-4-yl)imidazo[1,2-c]pyrimidine-2-carboxamide]: the Ki at Adenosine A2A receptor was less than 10 nM. Further, the EC50 in assay [1] was in the range of 10 to 100 nM.
On to `Cc1cccnc1COc1nc2c(-c3ccncn3)c(-c3cccc(C#N)c3)nc(N)n2n1` [Example 94, 3-(5-Amino-2-((3-methylpyridin-2-yl)methoxy)-8-(pyrimidin-4-yl)-[1,2,4]triazolo[1,5-c]pyrimidin-7-yl)benzonitrile], for which the Ki at Adenosine A2A receptor is less than 10 nM. In addition, the EC50 in assay [1] is less than 10 nM.
On to `N#Cc1cccc(-c2nc(N)n3nc(Cc4c(F)cccc4CN4CCCS4(=O)=O)nc3c2-c2ccncn2)c1` [Example 86, 3-(5-Amino-2-(2-((1,1-dioxidoisothiazolidin-2-yl)methyl)-6-fluorobenzyl)-8-(pyrimidin-4-yl)-[1,2,4]triazolo[1,5-c]pyrimidin-7-yl)benzonitrile], for which the Ki at Adenosine A2A receptor is less than 10 nM. Also, in assay [1], the EC50 was less than 10 nM.
Regarding `N#Cc1cccc(-c2nc(N)n3nc(Cc4ccccn4)nc3c2-c2cccc3ncccc23)c1` [Example 44, 3-(5-Amino-2-(pyridin-2-ylmethyl)-8-(quinolin-5-yl)-[1,2,4]triazolo[1,5-c]pyrimidin-7-yl)benzonitrile], the Ki on Adenosine A2A receptor is less than 10 nM. Moreover, the EC50 in assay [1] is 10 to 100 nM.
On the same counts, the results for `N#Cc1cccc(-c2nc(N)n3nc(C(O)c4ccccc4)nc3c2-c2ncncc2F)c1` (stereo not shown) [Example 45, 3-(5-Amino-8-(5-fluoropyrimidin-4-yl)-2-(hydroxy(phenyl)methyl)-[1,2,4]triazolo[1,5-c]pyrimidin-7-yl)benzonitrile] are less than 10 nM and less than 10 nM.
For `N#Cc1cccc(-c2nc(N)n3nc(Cc4ccccn4)nc3c2-c2cnn3ncccc23)c1` [Example 60, 3-(5-Amino-8-(pyrazolo[1,5-b]pyridazin-3-yl)-2-(pyridin-2-ylmethyl)-[1,2,4]triazolo[1,5-c]pyrimidin-7-yl)benzonitrile] the same measures were less than 10 nM and 10 to 100 nM.
Turning to `Cc1cc(-c2c(-c3cccc(C#N)c3)nc(N)n3ccnc23)cc(C)n1` [Example 1, 3-(5-Amino-8-(2,6-dimethylpyridin-4-yl)imidazo[1,2-c]pyrimidin-7-yl)benzonitrile], the Ki on Adenosine A2A receptor is less than 10 nM. Moreover, the EC50 in assay [1] is 100 to 1000 nM.
On the same counts, the results for `CCNC(=O)c1cn2c(N)nc(-c3cccc(C#N)c3)c(-c3ccncc3OC)c2n1` [Example 30, 5-Amino-7-(3-cyanophenyl)-N-ethyl-8-(3-methoxypyridin-4-yl)imidazo[1,2-c]pyrimidine-2-carboxamide] are less than 10 nM and less than 10 nM.
For the compound `CN1CC(=O)N(Cc2cccc(F)c2Cc2nc3c(-c4ccncn4)c(-c4cccc(C#N)c4)nc(N)n3n2)C1=O` [Example 87, 3-(5-Amino-2-(2-fluoro-6-((3-methyl-2,5-dioxoimidazolidin-1-yl)methyl)benzyl)-8-(pyrimidin-4-yl)-[1,2,4]triazolo[1,5-c]pyrimidin-7-yl)benzonitrile], the Ki at Adenosine A2A receptor was less than 10 nM. For the same compound, in assay [1], the EC50 is less than 10 nM.
Consider `N#Cc1cccc(-c2nc(N)n3nc([C@H](O)c4ccccc4)nc3c2-c2ccncn2)c1` [Example 65, (R)-3-(5-amino-2-(hydroxy(phenyl)methyl)-8-(pyrimidin-4-yl)-[1,2,4]triazolo[1,5-c]pyrimidin-7-yl)benzonitrile], for which, at Adenosine A2A receptor, the Ki is less than 10 nM. In addition, the EC50 in assay [1] is less than 10 nM.
Turning to `Cc1cccc(Cc2nc3c(-c4ccncn4)c(-c4cccc(C#N)c4)nc(N)n3n2)n1` [Example 51, 3-(5-Amino-2-((6-methylpyridin-2-yl)methyl)-8-(pyrimidin-4-yl)-[1,2,4]triazolo[1,5-c]pyrimidin-7-yl)benzonitrile], the Ki on Adenosine A2A receptor was less than 10 nM. Further, the EC50 in assay [1] is 10 to 100 nM.
For `N#Cc1cccc(-c2nc(N)n3nc([C@@H](O)c4ccccc4)nc3c2-c2ccncn2)c1` [Example 64, (S)-3-(5-amino-2-(hydroxy(phenyl)methyl)-8-(pyrimidin-4-yl)-[1,2,4]triazolo[1,5-c]pyrimidin-7-yl)benzonitrile] the same measures were less than 10 nM and less than 10 nM.
For `CCNC(=O)c1cn2c(N)nc(-c3cccc(C#N)c3)c(C3CC3)c2n1` [Example 40, 5-Amino-7-(3-cyanophenyl)-8-cyclopropyl-N-ethylimidazo[1,2-c]pyrimidine-2-carboxamide] the same measures were 10 to 100 nM and more than 1000 nM.
